Key:
[1] = physchem; assay type: physicochemical; details: 24 °C; water at 24±3° C.
Source text: (§1) Acid addition salts of the first aspect are well-suited to pharmaceutical formulation as either solution or solid dosage forms. […] It has been shown that these particular salts are also non-hygroscopic and this remains unchanged when stored in a humid environment. The lower hygroscopicity is a further advantage for processing and storing such acid addition salts.

[2] = hygroscopicity of the salts; assay type: physicochemical; details: crystal form / solid salt
Source text: as §1

[3] = system: tubulin; assay: inhibition of tubulin polymerisation; assay type: biochemical; details: read-out: inhibits tubulin polymerisation, IC50
Source text: One pharmacologically important mechanism of inhibiting cellular proliferation is by means of binding tubulin. Tubulin is an asymmetric dimer composed of alpha and beta subunits, that polymerizes to form structural components of the cytoskeleton called microtubules. Microtubules must be highly dynamic in order to carry out many of their functions. At certain stages of the cell cycle, or in particular cell types or organelles, stable microtubules are required, such as for transport within axons or for ciliary and flagellar movement. Micro-tubules assemble during the G2 phase of the cell cycle, and participate in the formation of the mitotic spindle which facilitates the segregation of sister chromatids during the process of cell division. The essential role of microtubules in cell division and the ability of drugs that interact with tubulin to interfere with the cell cycle have made tubulin a successful target for applications that include anti-cancer drugs, fungicides, and herbicides.
The compound of formula I, and by analogy its acid addition salts, inhibits tubulin polymerisation with an IC50 of 3 μM. […] The inhibition of tubulin polymerisation makes a compound of formula I suitable for the treatment of cancer, viral and bacterial infections, vascular restenosis, inflammatory diseases, autoimmune diseases, and psoriasis.

[4] = system: in vivo tumour models; assay: vascular targeting activity in in vivo tumour models

CCC[C@H](Nc1nc(-c2ccc(NC(=O)NCC)c(OC)c2)ncc1C)c1cccnc1.O=C(O)CC(O)(CC(=O)O)C(=O)O [citrate salt, N-ethyl-N′-[2-methoxy-4-(5-methyl-4-{[(1S)-1-pyridin-3-ylbutyl]amino}pyrimidin-2-yl)phenyl]urea citrate salt]
solubility [1]: > 2100 µg/mL
hygroscopicity [2]: not hygroscopic

CCC[C@H](Nc1nc(-c2ccc(NC(=O)NCC)c(OC)c2)ncc1C)c1cccnc1.O=C(O)C(O)C(O)C(=O)O [tartrate salt, N-ethyl-N′-[2-methoxy-4-(5-methyl-4-{[(1S)-1-pyridin-3-ylbutyl]amino}pyrimidin-2-yl)phenyl]urea tartrate salt]
solubility [1]: > 2100 µg/mL
hygroscopicity [2]: not hygroscopic

CCC[C@H](Nc1nc(-c2ccc(NC(=O)NCC)c(OC)c2)ncc1C)c1cccnc1.O=C(O)C(=O)O [mono-oxalate salt, N-ethyl-N′-[2-methoxy-4-(5-methyl-4-{[(1S)-1-pyridin-3-ylbutyl]amino}pyrimidin-2-yl)phenyl]urea mono-oxalate salt]
solubility [1]: > 2100 µg/mL
hygroscopicity [2]: not hygroscopic

CCC[C@H](Nc1nc(-c2ccc(NC(=O)NCC)c(OC)c2)ncc1C)c1cccnc1.CS(=O)(=O)O.CS(=O)(=O)O [di-methanesulfonate salt, N-ethyl-N′-[2-methoxy-4-(5-methyl-4-{[(1S)-1-pyridin-3-ylbutyl]amino}pyrimidin-2-yl)phenyl]urea di-methanesulfonate salt]
solubility [1]: > 2100 µg/mL
hygroscopicity [2]: not hygroscopic

CCC[C@H](Nc1nc(-c2ccc(NC(=O)NCC)c(OC)c2)ncc1C)c1cccnc1 [compound of formula I, N-ethyl-N′-[2-methoxy-4-(5-methyl-4-{[(1S)-1-pyridin-3-ylbutyl]amino}pyrimidin-2-yl)phenyl]urea]
IC50 [3]: 3000 nM
vascular targeting activity [4]: displays vascular targeting activity

CCC[C@H](Nc1nc(-c2ccc(NC(=O)NCC)c(OC)c2)ncc1C)c1cccnc1.Cl.Cl [dihydrochloride salt, N-ethyl-N′-[2-methoxy-4-(5-methyl-4-{[(1S)-1-pyridin-3-ylbutyl]amino}pyrimidin-2-yl)phenyl]urea dihydrochloride salt]
solubility [1]: > 2100 µg/mL
hygroscopicity [2]: not hygroscopic
